Test results: PMC7751407, “Novel oxindole/benzofuran hybrids as potential dual CDK2/GSK-3β inhibitors targeting breast cancer: design, synthesis, biological evaluation, and in silico studies” (Journal of Enzyme Inhibition and Medicinal Chemistry, 2020)

What was measured:
MCF-7 cells [1] = assay: Cell cycle analysis by flow cytometry (PI stain) in MCF-7 cells; type: cell-based, human; conditions: 24 h, at IC50 concentration; for %Sub-G1: control 1.29; for %G2/M: control 11.3; for %S: control 33.82; for %G0-G1: control 53.59
Method: Compounds showing promising antiproliferative as well as kinase inhibitory activity 5d, 5e and 5f were further investigated for their influence on the cell cycle progression by flow cytometry analysis using propidium iodide (PI) stain. Cell cycle parameters were compared for the breast cancer MCF-7 cells with DMSO as control and after treatment with the compounds of interest and incubation for 24 h, and the results were presented in Figure 5 and Table 3. […]
concentration), and then cells were washed twice with ice-cold phosphate buffered saline (PBS).
Subsequently, the treated cells were collected by centrifugation, fixed in ice-cold 70% (v/v) ethanol, washed with PBS, re-suspended with 100 μg/mL RNase, stained with 40 μg/mL PI, and analyzed by flow cytometry using FACS Calibur (Becton Dickinson, BD, Franklin Lakes, NJ,

MCF-10A = assay: MTT cytotoxicity towards non-tumorigenic breast cells MCF-10A; type: cell-based, human; conditions: for IC50: Homo sapiens, MCF-10A, MTT assay, non-tumorigenic breast cell line; for Mean tumour selectivity index (S.I.): IC50 for MCF-10A/IC50 average for (MCF-7 and T-47D)
From the text: In order to investigate their selectivity on cancer cells, hybrids 5d, 5e and 5f, endowed with dual growth inhibitory action against MCF-7 and T-47D cells, were assesses for their cytotoxic action towards the non-tumorigenic breast cells (MCF-10A), via the MTT assay. The obtained IC50s and the calculated mean tumour selectivity index (S.I.); IC50 for MCF-10A/IC50 average for (MCF-7 and T-47D) have been presented in Table 5.
(§1) 1. Anti-proliferative activity toward human breast cell lines
(§2) The two examined human breast cancer cell lines (T-47D and MCF-7) have been obtained from American Type Culture Collection (ATCC). Cells lines were maintained as monolayers in Dulbecco’s Modified Eagle’s Medium (DMEM) supplemented with 10% FBS, 2 mM L-glutamine, 100 U/ml penicillin and 100µg/ml streptomycin sulfate. Cells were sub-cultured with trypsine /EDTA solution, counted with haemocytometer and plated onto 96-well plates (5000 cells/well) and left overnight to form a semi-confluent monolayer. Cell monolayers were treated in quadrates with vehicle (DMSO, 0.1% v/v), test samples or Adriamycin as positive control for an exposure time of 48 h. At the end of exposure, MTT solution in PBS (5 mg/ml) was then added to all well including no cell blank and left to incubate for 90 min. The formation of formazan crystals were visually confirmed using phase contract microscopy. DMSO (100 µl/well) was added to dissolve the formazan crystals with shaking for 10 min after which the absorbance was read at 590 nm against no cell blanks on a FLuo Star Optima microplate reader (BMG technologies, Germany).
Cell proliferation was calculated comparing the OD values of the DMSO control wells and those of the samples represented as % proliferation to the control. Dose-response experiment was performed on samples producing > or =50% loss of cell proliferation using five serial 2-fold dilutions (50, 25, 12.5, 6.25 and 3.125 µM) of the sample. IC50 values (concentration of sample causing 50% loss of cell proliferation of the vehicle control) were calculated using non-linear regression curve fitting of the dose response plots on GraphPad Prism V.6.0 software. […]

MCF-7 = assay: MTT anti-proliferative assay, MCF-7 breast cancer cells; type: cell-based; conditions: Homo sapiens, MCF7, 48 h exposure, mean ± SD of three separate experiments
Method: as §1, §2
(§3) Cell proliferation was calculated comparing the OD values of the DMSO control wells and those of the samples represented as % proliferation to the control. Dose-response experiment was performed on samples producing > or =50% loss of cell proliferation using five serial 2-fold […]
(§4) IC50 values (concentration of sample causing 50% loss of cell proliferation of the vehicle control) were calculated using non-linear regression curve fitting of the dose response plots on GraphPad Prism V.6.0 software. […]

CDK2 = target: T1, CDK2 (Homo sapiens, UniProt P24941); assay: CDK2 kinase inhibition (CDK2 Kinase Enzyme System, Promega); type: biochemical; conditions: mean ± SD of three separate experiments
T1 construct: purchased Promega, Milan, Italy V2971
Method: (§5) 2. CDK2/GSK-3β Kinase Inhibitory Activities
(§6) The CDK2 and GSK-3β inhibitory activities were determined for hybrids 5a-g using the CDK2
(§7) Kinase Enzyme System (catalog No. V2971) (Promega, Milan, Italy), and GSK3β Assay Kit

MCF-7 cells [2] = assay: Annexin V-FITC/PI dual staining apoptosis assay in MCF-7 cells; type: cell-based, human; conditions: at IC50 concentration; for Late Apoptosis (Upper Right %): control 0.19; for Early Apoptosis (Lower Right %): control 0.63; for Total apoptosis (L.R % + U.R %): control 0.82; for Necrosis: upper left quadrant, control 0.49
Method: To investigate further the effect of the promising compounds 5d, 5e, and 5f on cell apoptosis, Annexin V-FITC/propidium iodide dual staining assay was performed according to the reported method. The morphological markers of apoptosis in the breast cancer MCF-7 cell line were examined before and after treatment with the compounds of interest. Apoptosis assay depends on the translocation of the phosphatidylserine (PS) phospholipid to the cell surface in cells undergoing apoptosis which can be easily detected by staining with the fluorescent conjugate of annexin V followed by flow cytometry analysis. Simultaneously, MCF-7 cells were stained with propidium iodide (PI) which could enter cells with damaged plasma membranes only. This enables the discrimination between early apoptotic cells (positive for PS, but negative for PI) from late apoptotic and necrotic cells (positive for both PS and PI). […]
4. Annexin V-FITC Apoptosis Assay
Phosphatidylserine externalization was assayed using Annexin V-FITC/PI apoptosis detection kit (BD Biosciences, USA) according to the manufacturer’s instructions. Breast cancer MCF-7 cells were cultured to a monolayer then treated with hybrids (5d, 5e and 5f) at their IC50 concentration. Briefly, cells were then harvested via trypsinization, and rinsed twice in PBS followed by binding buffer. Moreover, cells were re-suspended in 100 μL of binding buffer with the addition of 1 μL of FITC-Annexin V followed by an incubation period of 30 min at 4 °C. Cells were then rinsed in binding buffer and resuspended in 150 μL of binding buffer with the addition of 1 μL of DAPI (1 μg/μL in PBS). Cells were then analyzed using the flow cytometer BD FACS Canto II and the results were interpreted with FlowJo7.6.4 software (Tree Star, Ashland, OR,

GSK-3β = target: T2, GSK-3β (Homo sapiens, UniProt P49841); assay: GSK-3β kinase inhibition (GSK3β Assay Kit, BPS Biosciences); type: biochemical; conditions: mean ± SD of three separate experiments
T2 construct: purchased BPS Biosciences, San Diego, CA, USA 79700
Method: as §5, §6, §7

T-47D = assay: MTT anti-proliferative assay, T-47D breast cancer cells; type: cell-based; conditions: Homo sapiens, T47D, 48 h exposure, mean ± SD of three separate experiments
Method: as §1, §2, §3, §4

T2 sequence (P49841 whole entry): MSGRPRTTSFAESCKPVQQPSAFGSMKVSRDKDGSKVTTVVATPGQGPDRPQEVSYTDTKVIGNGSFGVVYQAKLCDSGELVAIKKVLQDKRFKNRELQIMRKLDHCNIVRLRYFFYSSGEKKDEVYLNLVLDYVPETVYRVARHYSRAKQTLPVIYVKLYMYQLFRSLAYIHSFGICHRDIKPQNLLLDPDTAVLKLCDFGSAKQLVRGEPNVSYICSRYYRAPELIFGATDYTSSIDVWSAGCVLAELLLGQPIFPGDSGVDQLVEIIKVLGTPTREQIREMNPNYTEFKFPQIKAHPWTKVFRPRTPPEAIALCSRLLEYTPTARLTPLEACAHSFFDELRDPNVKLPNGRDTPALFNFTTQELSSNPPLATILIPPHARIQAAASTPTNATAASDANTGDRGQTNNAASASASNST

| melting point | IC50 (MCF-7) | IC50 (CDK2) | IC50 (GSK-3β) | IC50 (T-47D) | SMILES | %Sub-G1 (MCF-7 cells [1]) | %G2/M (MCF-7 cells [1]) | %S (MCF-7 cells [1]) | %G0-G1 (MCF-7 cells [1]) | IC50 (MCF-10A) | Mean tumour selectivity index (S.I.) (MCF-10A) | Late Apoptosis (Upper Right %) (MCF-7 cells [2]) | Early Apoptosis (Lower Right %) (MCF-7 cells [2]) | Total apoptosis (L.R % + U.R %) (MCF-7 cells [2]) | Necrosis (MCF-7 cells [2]) |
| --- | --- | --- | --- | --- | --- | --- | --- | --- | --- | --- | --- | --- | --- | --- | --- |
| > 300 °C | 3.41 ± 0.1 µM | 0.0378 ± 0.0021 µM | 0.0321 ± 0.0017 µM | 3.82 ± 0.12 µM | O=C1Nc2ccc(Br)cc2C1=NNC(=O)c1cc2cc(Br)ccc2o1 [5d, 5-Bromo-N'-(5-bromo-2-oxoindolin-3-ylidene)benzofuran-2-carbohydrazide] | 13.27% | 30.26% | 22.5% | 33.97% | 21.7 ± 1.05 µM | 6.0 | 10.14% | 3.61% | 13.75% | 1.56% |
| > 300 °C | 3.45 ± 0.1 µM | 0.177 ± 0.0096 µM | 0.0808 ± 0.0044 µM | 4.53 ± 0.14 µM | Cc1ccc2c(c1)C(=NNC(=O)c1cc3cc(Br)ccc3o1)C(=O)N2 [5e, 5-Bromo-N'-(5-methyl-2-oxoindolin-3-ylidene)benzofuran-2-carbohydrazide] | 17.73% | 29.21% | 23.21% | 29.85% | 23.6 ± 0.86 µM | 5.9 | 15.08% | 4.66% | 19.74% | 1.81% |
| > 300 °C | 2.27 ± 0.06 µM | 0.0528 ± 0.0029 µM | 0.0401 ± 0.0022 µM | 7.8 ± 0.25 µM | COc1ccc2c(c1)C(=NNC(=O)c1cc3cc(Br)ccc3o1)C(=O)N2 [5f, 5-Bromo-N'-(5-methoxy-2-oxoindolin-3-ylidene)benzofuran-2-carbohydrazide] | 22.02% | 37.82% | 17.88% | 22.28% | 40 ± 1.42 µM | 7.9 | 22.16% | 3.94% | 26.10% | 2.14% |
